Assay [1] has as its system 4T1. Put plainly: Induction of cell cycle arrest in mouse 4T1 adherent cells assessed as accumulation at S phase at 1 uM measured after 72 hrs by PI staining based flow cytometry analysis (reference value: 15.3%). In kind it is functional. (In general: In flow cytometry, cells or beads pass a laser one at a time.)
The subject of assay [2] is 4T1. In words: Inhibition of cell migration in mouse 4T1 cells assessed as maximal efficacy at 0.4 uM incubated for 4 hrs by millicell-motility assay. Format: functional.
The subject of assay [3] is 4T1. In words: Induction of cell cycle arrest in mouse 4T1 adherent cells assessed as accumulation at G2/M phase at 1 uM measured after 72 hrs by PI staining based flow cytometry analysis (reference value: 7.9%). Format: functional.
In assay [4] the test system is 4T1. Put plainly: Effect on p130Cas phosphorylation in mouse 4T1 cultured as 3D spheroids at 0.1 to 1 uM incubated for 24 hrs by immunoblotting analysis. Format: functional, cell-based. Conditions: dose 0.1-1 µM. Background: Immunoblotting shows a protein as a band on a membrane.
Assay [5] concerns the target High affinity nerve growth factor receptor (Homo sapiens) (UniProt P04629). Put plainly: Inhibition of TrkA (unknown origin) at 0.1 uM relative to control; values are per cent of control.
Assay [6] concerns ID8. Put plainly: Antitumor activity against mouse ID8 cells implanted in C57BL6 mouse assessed as inhibition of FAK phosphorylation at Y397 residue at 0.5 mg/ml administered as solution in 5% sucrose measured after 30 days by immunoblotting analysis. Format: functional, cell-based. Conditions: time 30.0 day.
For assay [7], the system named is ID8. Put plainly: Antitumor activity against mouse ID8 suspended cells assessed as reduction in cell viability at 0.1 to 1 uM measured after 15 days by trypan blue staining based analysis. Format: functional. Particulars: dose 0.1-1 µM, time 15.0 day.
The target in assay [8] is Tyrosine-protein kinase ABL1 (Homo sapiens) (UniProt P00519). Put plainly: Inhibition of Abl (unknown origin) at 1 uM relative to control; values are per cent of control.
Assay [9] relates to 4T1. Put plainly: Effect on p130Cas phosphorylation at Tyr410 residue in mouse 4T1 cultured as 3D spheroids at 0.1 uM incubated for 24 hrs by immunoblotting analysis. Format: functional, cell-based.
For assay [10], the target named is Vascular endothelial growth factor receptor 2 (Homo sapiens) (UniProt P35968). Put plainly: Inhibition of KDR (unknown origin) at 1 uM relative to control; values are per cent of control.
Assay [11] has as its target Activated CDC42 kinase 1 (Homo sapiens) (UniProt Q07912). In words: Inhibition of ACK1 (unknown origin) at 1 uM relative to control; values are per cent of control.
The subject of assay [12] is ID8. In words: Antitumor activity against mouse ID8 suspended cells assessed as reduction in cell viability measured after 72 hrs by trypan blue staining based analysis. Format: functional. Particulars: dose 0.1 µM.
Assay [13] has as its target Serine/threonine-protein kinase Chk1 (Homo sapiens) (UniProt O14757). In words: Inhibition of CHK1 (unknown origin) at 0.1 uM relative to control; values are per cent of control.
Assay [14] concerns the target Dual specificity mitogen-activated protein kinase kinase 1 (Homo sapiens) (UniProt Q02750). Put plainly: Inhibition of MEK1 (unknown origin) at 1 uM relative to control; values are per cent of control.
The target in assay [15] is Aurora kinase A (Homo sapiens) (UniProt O14965). In words: Inhibition of Aurora-A (unknown origin) at 1 uM relative to control.
Assay [16] deals with cAMP-dependent protein kinase (PKA) (Homo sapiens) (UniProt P22694+P17612+P22612). Put plainly: Inhibition of PKA (unknown origin) at 0.1 uM relative to control; values are per cent of control.
The target of assay [17] is Tyrosine-protein kinase Lck (Homo sapiens) (UniProt P06239). In words: Inhibition of Lck (unknown origin) at 0.1 uM relative to control; values are per cent of control.
In assay [18] the test system is 4T1. In words: Induction of apoptosis in mouse 4T1 suspended cells at 0.1 to 0.4 uM incubated for 24 hrs by annexin V staining based flow cytometry analysis. Format: functional. Conditions: dose 0.1-0.4 µM.
In assay [19] the target is Proto-oncogene tyrosine-protein kinase receptor Ret (Homo sapiens) (UniProt P07949). Put plainly: Inhibition of Ret (unknown origin) at 1 uM relative to control; values are per cent of control.

Active and inactive are the calls of the source. The calls are words filed in the database; no cut-off is given here.

Chain of Serine/threonine-protein kinase Chk1 (Homo sapiens) (O14757 whole entry): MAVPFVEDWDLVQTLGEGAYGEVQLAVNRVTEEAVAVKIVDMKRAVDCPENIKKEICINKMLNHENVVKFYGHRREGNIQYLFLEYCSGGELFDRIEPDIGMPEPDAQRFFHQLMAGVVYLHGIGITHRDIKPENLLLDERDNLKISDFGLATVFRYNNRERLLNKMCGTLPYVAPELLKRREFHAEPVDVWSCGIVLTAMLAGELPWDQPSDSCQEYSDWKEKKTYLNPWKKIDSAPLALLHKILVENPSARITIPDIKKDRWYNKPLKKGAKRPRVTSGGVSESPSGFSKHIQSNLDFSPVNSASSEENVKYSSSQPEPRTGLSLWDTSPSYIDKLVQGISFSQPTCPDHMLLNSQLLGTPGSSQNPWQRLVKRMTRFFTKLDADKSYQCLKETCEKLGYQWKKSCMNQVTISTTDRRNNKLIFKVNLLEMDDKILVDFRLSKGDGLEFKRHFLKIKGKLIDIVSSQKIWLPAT
Chain of Vascular endothelial growth factor receptor 2 (Homo sapiens) (P35968 whole entry): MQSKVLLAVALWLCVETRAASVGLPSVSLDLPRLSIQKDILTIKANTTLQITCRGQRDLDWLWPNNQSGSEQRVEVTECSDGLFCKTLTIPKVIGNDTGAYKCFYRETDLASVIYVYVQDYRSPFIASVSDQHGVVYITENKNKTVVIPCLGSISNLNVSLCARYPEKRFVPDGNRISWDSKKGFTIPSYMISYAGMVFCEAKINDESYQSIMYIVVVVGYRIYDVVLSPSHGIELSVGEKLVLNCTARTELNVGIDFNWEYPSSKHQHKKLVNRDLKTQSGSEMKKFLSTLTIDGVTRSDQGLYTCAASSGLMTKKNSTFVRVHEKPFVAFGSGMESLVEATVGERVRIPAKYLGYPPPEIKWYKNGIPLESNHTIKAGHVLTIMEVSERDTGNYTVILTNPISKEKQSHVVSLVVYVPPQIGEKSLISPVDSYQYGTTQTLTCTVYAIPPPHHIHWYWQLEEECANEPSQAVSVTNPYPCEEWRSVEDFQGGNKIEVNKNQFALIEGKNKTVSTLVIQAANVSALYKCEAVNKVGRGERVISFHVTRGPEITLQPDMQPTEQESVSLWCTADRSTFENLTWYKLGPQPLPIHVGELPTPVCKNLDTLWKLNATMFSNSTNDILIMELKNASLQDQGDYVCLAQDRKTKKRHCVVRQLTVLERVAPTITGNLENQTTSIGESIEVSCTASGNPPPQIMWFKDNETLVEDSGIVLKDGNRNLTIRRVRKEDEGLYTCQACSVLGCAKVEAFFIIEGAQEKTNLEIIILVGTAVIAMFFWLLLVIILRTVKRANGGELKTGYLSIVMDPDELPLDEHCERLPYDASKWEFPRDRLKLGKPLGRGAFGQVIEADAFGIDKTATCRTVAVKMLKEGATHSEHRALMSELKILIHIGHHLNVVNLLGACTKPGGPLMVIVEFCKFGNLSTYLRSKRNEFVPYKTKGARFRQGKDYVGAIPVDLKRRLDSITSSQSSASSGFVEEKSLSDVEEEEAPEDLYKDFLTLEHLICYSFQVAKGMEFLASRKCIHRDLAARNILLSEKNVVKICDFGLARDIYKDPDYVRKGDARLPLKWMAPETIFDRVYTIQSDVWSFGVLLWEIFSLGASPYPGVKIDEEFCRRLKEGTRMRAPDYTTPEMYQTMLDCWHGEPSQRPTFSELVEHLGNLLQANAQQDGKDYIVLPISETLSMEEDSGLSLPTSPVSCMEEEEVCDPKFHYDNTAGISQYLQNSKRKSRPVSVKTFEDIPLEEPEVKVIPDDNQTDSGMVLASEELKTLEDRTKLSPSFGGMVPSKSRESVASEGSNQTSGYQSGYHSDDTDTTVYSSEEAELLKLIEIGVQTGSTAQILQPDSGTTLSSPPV
Chain of Proto-oncogene tyrosine-protein kinase receptor Ret (Homo sapiens) (P07949 whole entry): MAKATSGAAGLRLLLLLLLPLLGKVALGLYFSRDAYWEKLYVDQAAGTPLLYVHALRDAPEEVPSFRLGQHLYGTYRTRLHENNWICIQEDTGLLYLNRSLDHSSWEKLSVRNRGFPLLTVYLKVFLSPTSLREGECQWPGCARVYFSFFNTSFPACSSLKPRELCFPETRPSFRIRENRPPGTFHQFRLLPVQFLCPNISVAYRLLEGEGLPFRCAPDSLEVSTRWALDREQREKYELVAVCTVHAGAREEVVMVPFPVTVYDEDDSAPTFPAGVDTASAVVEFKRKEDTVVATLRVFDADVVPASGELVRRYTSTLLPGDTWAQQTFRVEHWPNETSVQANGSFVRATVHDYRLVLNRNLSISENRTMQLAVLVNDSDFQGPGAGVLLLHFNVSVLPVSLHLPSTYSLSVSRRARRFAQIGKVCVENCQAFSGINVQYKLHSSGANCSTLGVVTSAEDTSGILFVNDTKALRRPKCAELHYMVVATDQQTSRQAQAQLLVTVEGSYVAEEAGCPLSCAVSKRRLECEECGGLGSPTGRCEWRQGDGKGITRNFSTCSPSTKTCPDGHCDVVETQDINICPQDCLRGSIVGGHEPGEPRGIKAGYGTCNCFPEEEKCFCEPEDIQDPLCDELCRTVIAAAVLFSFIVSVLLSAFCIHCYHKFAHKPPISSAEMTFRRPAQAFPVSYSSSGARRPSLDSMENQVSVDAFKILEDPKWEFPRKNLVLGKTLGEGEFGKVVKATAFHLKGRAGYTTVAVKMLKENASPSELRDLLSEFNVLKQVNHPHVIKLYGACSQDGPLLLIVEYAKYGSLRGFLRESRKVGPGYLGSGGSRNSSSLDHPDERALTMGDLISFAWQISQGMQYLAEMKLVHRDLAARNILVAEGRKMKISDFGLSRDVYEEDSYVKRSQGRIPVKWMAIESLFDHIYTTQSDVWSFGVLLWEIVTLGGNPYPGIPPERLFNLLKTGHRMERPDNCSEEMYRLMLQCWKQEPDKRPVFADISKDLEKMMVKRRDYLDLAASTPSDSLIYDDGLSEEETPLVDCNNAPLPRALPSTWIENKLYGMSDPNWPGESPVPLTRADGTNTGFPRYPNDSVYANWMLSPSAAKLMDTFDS
Chain of Dual specificity mitogen-activated protein kinase kinase 1 (Homo sapiens) (Q02750 whole entry): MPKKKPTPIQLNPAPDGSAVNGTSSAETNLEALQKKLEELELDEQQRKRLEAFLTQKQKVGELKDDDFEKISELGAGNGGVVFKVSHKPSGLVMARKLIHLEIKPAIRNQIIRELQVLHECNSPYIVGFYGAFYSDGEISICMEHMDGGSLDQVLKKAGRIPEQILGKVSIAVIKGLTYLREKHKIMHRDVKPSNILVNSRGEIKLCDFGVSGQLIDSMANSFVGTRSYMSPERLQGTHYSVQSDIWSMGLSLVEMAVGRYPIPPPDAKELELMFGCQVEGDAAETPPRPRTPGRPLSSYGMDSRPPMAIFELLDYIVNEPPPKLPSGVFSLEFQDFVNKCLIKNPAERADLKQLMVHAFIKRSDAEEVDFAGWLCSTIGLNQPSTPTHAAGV
Chain of High affinity nerve growth factor receptor (Homo sapiens) (P04629 33-796 limits assumed): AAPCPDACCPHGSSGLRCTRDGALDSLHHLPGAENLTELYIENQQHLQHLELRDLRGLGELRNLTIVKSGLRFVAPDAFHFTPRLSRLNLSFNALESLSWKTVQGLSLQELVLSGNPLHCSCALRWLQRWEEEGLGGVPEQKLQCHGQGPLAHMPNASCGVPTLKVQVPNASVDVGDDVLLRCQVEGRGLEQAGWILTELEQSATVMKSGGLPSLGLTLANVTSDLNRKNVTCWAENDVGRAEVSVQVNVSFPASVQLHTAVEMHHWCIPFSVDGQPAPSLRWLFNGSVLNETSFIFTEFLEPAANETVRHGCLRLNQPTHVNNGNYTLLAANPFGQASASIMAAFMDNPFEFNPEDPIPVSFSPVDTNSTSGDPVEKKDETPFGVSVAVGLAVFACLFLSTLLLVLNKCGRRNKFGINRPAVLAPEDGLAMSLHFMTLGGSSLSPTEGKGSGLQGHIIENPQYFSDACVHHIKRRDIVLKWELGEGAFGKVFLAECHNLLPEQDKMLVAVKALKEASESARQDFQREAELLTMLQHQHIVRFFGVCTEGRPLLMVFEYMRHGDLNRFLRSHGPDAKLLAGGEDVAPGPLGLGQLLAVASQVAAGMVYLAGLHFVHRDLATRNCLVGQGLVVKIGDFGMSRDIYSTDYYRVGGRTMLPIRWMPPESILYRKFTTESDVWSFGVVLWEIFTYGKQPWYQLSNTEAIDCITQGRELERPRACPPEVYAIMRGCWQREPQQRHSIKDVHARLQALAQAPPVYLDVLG
Chain of Aurora kinase A (Homo sapiens) (O14965 whole entry): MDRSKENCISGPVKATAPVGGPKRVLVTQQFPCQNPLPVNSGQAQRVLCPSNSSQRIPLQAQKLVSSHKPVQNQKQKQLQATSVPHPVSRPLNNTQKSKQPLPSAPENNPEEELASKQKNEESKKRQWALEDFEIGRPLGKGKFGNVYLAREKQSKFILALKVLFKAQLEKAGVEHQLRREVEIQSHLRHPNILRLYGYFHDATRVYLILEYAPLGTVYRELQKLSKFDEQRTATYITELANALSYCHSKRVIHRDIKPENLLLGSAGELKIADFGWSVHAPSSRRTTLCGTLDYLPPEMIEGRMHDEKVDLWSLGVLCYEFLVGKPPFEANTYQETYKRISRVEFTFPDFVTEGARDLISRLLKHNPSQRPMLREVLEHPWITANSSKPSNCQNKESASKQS
Chain of Tyrosine-protein kinase Lck (Homo sapiens) (P06239 2-509 limits assumed): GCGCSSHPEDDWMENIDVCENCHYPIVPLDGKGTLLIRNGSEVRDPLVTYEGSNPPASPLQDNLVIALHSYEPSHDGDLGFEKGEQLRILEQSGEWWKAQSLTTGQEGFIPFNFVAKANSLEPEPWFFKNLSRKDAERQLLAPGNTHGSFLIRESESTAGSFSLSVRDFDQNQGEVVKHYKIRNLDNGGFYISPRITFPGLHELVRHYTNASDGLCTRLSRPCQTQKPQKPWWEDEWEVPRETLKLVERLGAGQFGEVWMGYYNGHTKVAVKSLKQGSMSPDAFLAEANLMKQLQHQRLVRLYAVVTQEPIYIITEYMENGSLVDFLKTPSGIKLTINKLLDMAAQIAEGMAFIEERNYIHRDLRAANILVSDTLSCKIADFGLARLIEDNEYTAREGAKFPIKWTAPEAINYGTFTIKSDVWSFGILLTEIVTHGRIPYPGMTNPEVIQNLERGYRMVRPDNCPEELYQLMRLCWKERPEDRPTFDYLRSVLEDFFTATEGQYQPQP

With `CNC(=O)c1ccccc1Nc1cc(Nc2ccc(N3CCOCC3)cc2OC)ncc1C(F)(F)F` [VS-4718], the Activity is 23.8% in [1], 10.5% in assay [3], “Dose-Dependent Effect” in assay [12] and 50% in assay [18]. Moreover, in assay [2], the Imax was approximately 60%. For the same compound, the result in assay [4] was inactive. The residual activity in assay [5] amounted to 80%; in [8], 112%; in [10], 107%; in [11], 16%; in assay [13] it was 109%; in assay [14], 79%. Besides, the results for the residual activity in assay [16], in [17] and in [19] were 114%, 76% and 67%, respectively. Further, the result in assay [6], in [7] and in assay [9] was Active. The same compound came in with an inhibition in assay [15] of 8%.

A word on the inhibition: it is the percentage by which the read-out fell short of the control.

Values taken from ChEMBL document CHEMBL5715945 (Cancer Biol Ther, 2010).
